Results from patent publication US20140088187A1, “ANDROGEN RECEPTOR INHIBITORS AND METHODS OF USE THEREOF” (BETH ISRAEL DEACONESS MEDICAL CENTER, priority 2010, published 2014).
Numbering of substitutions follows the chain as printed. “Also recorded” adds a separate entry of the source.

Legend:
wildtype AR = target: T1, wildtype AR (Homo sapiens, UniProt P10275); test: AR-responsive firefly luciferase reporter assay in COS7 cells transfected with AR (DHT-stimulated AR activity); assay type: cell-based; settings: for inhibition at 12.5 µM: COS-7, 24 h, read-out: % Angtag (12.5 μM vs. 1 nM DHT)
T1 construct: The AR WT construct expresses full-length human AR under cmv promoter control; expressed in transfected cells; host or cells: COS7
T1 sequence (P10275 1-920): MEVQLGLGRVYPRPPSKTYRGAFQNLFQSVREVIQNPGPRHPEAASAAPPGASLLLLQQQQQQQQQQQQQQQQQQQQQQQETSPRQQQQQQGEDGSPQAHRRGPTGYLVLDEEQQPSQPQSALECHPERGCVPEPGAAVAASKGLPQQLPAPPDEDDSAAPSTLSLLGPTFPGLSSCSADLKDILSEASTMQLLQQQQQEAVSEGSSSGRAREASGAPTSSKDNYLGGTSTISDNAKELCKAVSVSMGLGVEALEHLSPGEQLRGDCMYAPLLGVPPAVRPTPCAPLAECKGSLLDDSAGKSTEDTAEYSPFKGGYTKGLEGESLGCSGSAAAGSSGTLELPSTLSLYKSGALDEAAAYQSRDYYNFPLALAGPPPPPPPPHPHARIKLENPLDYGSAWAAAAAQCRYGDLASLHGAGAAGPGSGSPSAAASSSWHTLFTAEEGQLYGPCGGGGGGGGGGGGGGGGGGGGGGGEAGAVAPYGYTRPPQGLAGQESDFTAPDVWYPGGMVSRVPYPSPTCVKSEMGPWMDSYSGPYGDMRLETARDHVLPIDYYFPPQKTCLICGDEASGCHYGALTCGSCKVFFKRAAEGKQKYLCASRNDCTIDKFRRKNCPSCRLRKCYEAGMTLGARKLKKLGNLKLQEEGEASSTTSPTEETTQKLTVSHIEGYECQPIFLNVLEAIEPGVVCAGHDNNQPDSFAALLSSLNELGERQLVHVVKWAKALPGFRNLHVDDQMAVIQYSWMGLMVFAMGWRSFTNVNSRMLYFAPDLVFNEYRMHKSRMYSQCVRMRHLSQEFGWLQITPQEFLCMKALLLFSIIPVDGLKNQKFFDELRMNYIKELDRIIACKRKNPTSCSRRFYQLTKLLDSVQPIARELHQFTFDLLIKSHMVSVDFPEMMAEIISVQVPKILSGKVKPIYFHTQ
Text: FIG. 13. Antagonist activity of generation 4 compounds at 25 micromolar. […] Reporter firefly luciferase is corrected for control Renilla activity.
FIG. 14. Antagonist activity of generation 4 compounds at 1-10 micromolar. […] Reporter firefly luciferase is corrected for control Renilla activity. […]
(§1) The AR-responsive firefly luciferase reporter consists of 4 tandem repeats of the consensus steroid response element cloned upstream of the pGL3-Basic Luciferase vector (Promega). The AR WT construct expresses full-length human AR under cmv promoter control.
(§2) Luciferase activity was determined using the Dual-Luciferase Reporter Assay System (Promega E1910).

AR in VCaP cells [1] = target: T2, AR in VCaP cells (Homo sapiens, UniProt P10275); test: Nuclear AR, total AR protein and PSA expression in VCaP cells in steroid depleted medium; assay type: cell-based
T2 construct: endogenous in cells; host or cells: VCaP
T2 sequence (P10275 1-920): T1 sequence (P10275 1-920)
Text: VCaP cells, derived from a CRPC vertebral metastasis, express substantial levels of AR and AR regulated genes such as PSA even when cultured in steroid depleted medium. […] In additional studies focused on chemotype A compounds, we used immunofluorescence to assess AR nuclear localization. […] In contrast, and consistent with the biochemical fractionation studies noted above, basal nuclear AR was decreased by A61.
We used the NE-PER Nuclear and Cytoplasmic Extraction Reagents (Pierce 78833).

AR in VCaP cells [2] = target: T2, AR in VCaP cells; test: Immunofluorescence of AR nuclear localization in VCaP cells (CSS medium); assay type: cell-based
Text: VCaP cells, derived from a CRPC vertebral metastasis, express substantial levels of AR and AR regulated genes such as PSA even when cultured in steroid depleted medium. […] In additional studies focused on chemotype A compounds, we used immunofluorescence to assess AR nuclear localization.

AR in C4-2 cells = target: T3, AR in C4-2 cells (Homo sapiens, UniProt P10275, T878A)
T3 sequence (P10275 1-920 T878A): T1 sequence (P10275 1-920) with T878A

T877A mutant AR = target: T4, T877A mutant AR (Homo sapiens, UniProt P10275, T878A); test: T877A mutant AR luciferase reporter assay; assay type: cell-based; settings: HF 100 nM; chemotype A compounds 10 μM
T4 sequence (P10275 1-920 T878A): T1 sequence (P10275 1-920) with T878A
Description: FIG. 6. […] (f) W741C mutant AR response to Bic (10 μM), HF (100 nM), and chemotype A compounds (10 μM). Error bars represent S.E.M.
To further validate the predicted positioning of the compounds in the steroid binding pocket, we also examined the effects of established mutations within the LBD.
as §1, §2

VP16-AR = VP16-AR (Homo sapiens, UniProt P10275)
[3] = steroid depleted medium, data not shown

SMILES | inhibition at 12.5 µM (wildtype AR) [%] | further results
O=C(CCl)Nc1ccc(S(=O)(=O)NCc2ccc3c(c2)OCO3)cc1 [Compound 14, N-(4-(N-(Benzo[d][1,3]dioxol-5-ylmethyl)sulfamoyl)phenyl)chloroacetamide] | 90 | 
CC(=O)N(C(C)=O)c1ccc(S(=O)(=O)NCc2ccc3c(c2)OCO3)cc1 [Compound 15, N-acetyl-N-(4-(N-(Benzo[d][1,3]dioxol-5-ylmethyl)sulfamoyl)phenyl) acetamide] |  | % Angtag (12.5 μM vs. 1 nM DHT) (wildtype AR; 12.5 μM compound vs. 1 nM DHT): 85%
O=C(Nc1ccc(S(=O)(=O)NCc2ccc3c(c2)OCO3)cc1)C(F)(F)F [Compound 20, N-(4-(N-(Benzo[d][1,3]-dioxol-5-ylmethyl)sulfamoyl)phenyl)-2,2,2-trifluoroacetamide] | 0 | 
CS(=O)(=O)Nc1ccc(S(=O)(=O)NCc2ccc3c(c2)OCO3)cc1 [Compound 21, N-(benzo[d][1,3]dioxol-5-ylmethyl)-4-(methylsulfonamido)benzenesulfonamide] | 70 | 
CC(C)(C)CC(=O)Nc1ccc(S(=O)(=O)NCc2ccc3c(c2)OCO3)cc1 [Compound 22, N-(4-(N-(Benzo[d][1,3]dioxol-5-ylmethyl)sulfamoyl)phenyl)-3,3-dimethylbutanamide] | 70 | 
O=S(=O)(NCc1ccc2c(c1)OCO2)c1ccc(C(F)(F)F)c(N=C=S)c1 [Compound 23, N-(benzo[d][1,3]dioxol-5-ylmethyl)-3-isothiocyanato-4-(trifluoromethyl)benzenesulfonamide] | 75 | 
CC(=O)c1ccc(S(=O)(=O)NCc2ccc3c(c2)OCO3)cc1OC(F)(F)F [Compound 25, 4-acetyl-N-(benzo[d][1,3]dioxol-5-ylmethyl)-3-(trifluoromethoxy)benzenesulfonamide] | 50 | 
CCC(=O)c1cc(S(=O)(=O)NCc2ccc3c(c2)OCO3)ccc1OC(F)(F)F [Compound 29, N-(benzo[d][1,3]dioxol-5-ylmethyl)-3-propionyl-4-(trifluoromethoxy)benzenesulfonamide] | 60 | 
CS(=O)(=O)c1cc(S(=O)(=O)NCc2ccc3c(c2)OCO3)ccc1OC(F)(F)F [Compound 31, N-(benzo[d][1,3]dioxol-5-ylmethyl)-3-(methylsulfonyl)-4-(trifluoromethoxy)benzenesulfonamide] | 85 | 
CCC(=O)c1ccc(S(=O)(=O)NCc2ccc3c(c2)OCO3)cc1C(F)(F)F [Compound 33, N-(benzo[d][1,3]dioxol-5-ylmethyl)-4-propionyl-3-(trifluoromethyl)benzenesulfonamide] | 20 | 
O=S(=O)(NCc1ccc2c(c1)OCO2)c1ccc(F)cc1F [Compound A61, N-(1,3-benzodioxol-5-ylmethyl)-2,4-difluorobenzenesulfonamide] |  | potency in antagonizing AR activity in luciferase reporter assays (wildtype AR; relative to initial chemotype A compounds, data not shown): increased potency; also recorded: relatively higher potency; basal level PSA expression (AR in VCaP cells [1]; 10 μM, steroid depleted medium): further decreasing basal level PSA expression; nuclear AR (AR in VCaP cells [1]; 10 μM, steroid depleted medium): significantly decreased nuclear AR; DHT stimulated PSA expression (AR in VCaP cells [1]; not shown): blocking DHT stimulated PSA expression; nuclear AR levels by immunofluorescence (AR in VCaP cells [2]): decreased; basal PSA (AR in C4-2 cells; 24 hours (FIG. 10a)): decrease in basal PSA; total AR protein levels (AR in C4-2 cells; 24 hours (FIG. 10a)): noteworthy decrease; PSA expression (AR in C4-2 cells; [3]): reduced; nuclear AR levels (AR in C4-2 cells; [3]): reduced nuclear AR levels
CC(C)(O)C(=O)Nc1ccc([N+](=O)[O-])c(C(F)(F)F)c1 [hydroxyflutamide] |  | agonist activity on T877A mutant AR (T877A mutant AR): strong agonist; VP16-AR reporter (transcriptional) activity (VP16-AR): strong reporter activity

Further lines, with some results ahead:

inhibition at 12.5 µM (wildtype AR) [%] | SMILES | further results
70 | O=C(CBr)Nc1ccc(S(=O)(=O)NCc2ccc3c(c2)OCO3)cc1 [Compound 13, N-(4-(N-(Benzo[d][1,3]dioxol-5-ylmethyl)sulfamoyl)phenyl) bromoacetamide] | 
20 | O=C(CBr)Nc1cccc(S(=O)(=O)NCc2ccc3c(c2)OCO3)c1 [Compound 17, N-(3-(N-(Benzo[d][1,3]dioxol-5-ylmethyl)sulfamoyl)phenyl)-2-bromoacetamide] | 
20 | NC(=O)c1cc(S(=O)(=O)NCc2ccc3c(c2)OCO3)ccc1OC(F)(F)F [Compound 30, 5-(N-(benzo[d][1,3]dioxol-5-ylmethyl)sulfamoyl)-2-(trifluoromethoxy)benzamide] | 
50 | CC(=O)c1ccc(S(=O)(=O)NCc2ccc3c(c2)OCO3)cc1C(F)(F)F [Compound 32, 4-acetyl-N-(benzo[d][1,3]dioxol-5-ylmethyl)-3-(trifluoromethyl)benzenesulfonamide] | 
